Reference: US3981814A, “Bacteriostatic substituted benzanilide compositions and methods for their use” (Givaudan Corporation, priority 1975, dated 1976)
Converted amounts (≈) assume the structure as drawn.

Tested on: Staphylococcus aureus
Assay: In vitro soap bacteriostatic test (agar dilution, spot inoculation, 35°, 48 hours)
Type: cell-based
Conditions: for MIC: Staphylococcus aureus, without soap, read-out: Compound Activity Without Soap: minimum concentration where S. aureus growth is completely inhibited; for Compound Activity With Soap: minimum concentration where S. aureus growth is completely inhibited: ratio of soap to compound 100:1
Protocol: The antibacterial properties of the compounds prepared in Examples 1 - 14 were tested in soap. The in vitro soap bacteriostatic tests were conducted as follows: The compound is dissolved in a suitable solvent, usually dimethylformamide, to give a 6% solution. One-half ml. aliquot was added to 100 ml. of 3% solution of bar soap stock solution. The solid soap used was a neutral white toilet soap of the "LUX" type. The fatty acids in this soap were of the following composition: This yields an aqueous soap solution containing 30,000 mcg./ml. soap and 300 mcg./ml. compound. The soap/compound ratio in the latter is 100/l. A two-fold serial dilution series is prepared with this solution using sterile distilled water in test tubes such that the final volume in each tube is 2.0 ml. To each test tube is added 28 ml. of molten Dextrose Trypticase Extract Agar (B.B.L.). The tube contents were poured into sterile Petri plates and allowed to harden. The highest final concentration of compound in the serial dilution series is 20 mcg./ml. Plates were spot inoculated with a broth culture of Staphylococcus aureus and incubated at 35° for 48 hours. The lowest concentration completely inhibiting growth of the test organism, in mcg./ml. is recorded as the bacteriostatic concentration of the compound. Tests in the absence of soap are made in a similar manner except that all dilutions are made in solvent. The final concentration in the agar should not be greater than 5%. The results of these tests with the compounds of the present invention as compared with compounds having chemical structures closely related to the compounds of the present invention (designated by the symbol "C") are set forth in the Table. Column 1 contains the data as to the activity of the test solution without soap; column 2 refers to tests in which the ratio of soap to compound is 100:1. […] Growth is observed at the next lower concentration.

Row | SMILES | MIC [µg/mL] | Compound Activity With Soap: minimum concentration where S. aureus growth is completely inhibited
1 | O=C(Nc1cccc(C(F)(F)F)c1)c1ccc(Br)cc1 [Compound 3] | > 20 | 2.5 µg/mL
2 | O=C(Nc1cccc(C(F)(F)F)c1)c1ccc(Cl)c(Cl)c1 [Compound 5] | > 20 | 2.5 µg/mL
3 | O=C(Nc1ccc(Cl)c(C(F)(F)F)c1)c1cccc(Cl)c1 [Compound 9, 3,4'-dichloro-α,α,α-trifluoro-m-benzo-toluidide] | > 20 | 0.625 µg/mL
4 | O=C(Nc1ccc(Br)c(C(F)(F)F)c1)c1ccc(Cl)c(Cl)c1 [Compound 16, 4'-bromo-3,4-dichloro-α,α,α-trifluoro-m-benzotoluidide] | > 20 | 0.312 µg/mL
5 | O=C(Nc1ccc(Cl)c(C(F)(F)F)c1)c1cccc(Br)c1 [Compound 11] | > 20 | 2.5 µg/mL
6 | O=C(Nc1ccc(Br)c(C(F)(F)F)c1)c1cccc(Br)c1 [Compound 14, 3,4'-dibromo-α,α,α-trifluoro-m-benzotoluidide] | > 20 | 1.25 µg/mL
7 | O=C(Nc1ccc(F)c(C(F)(F)F)c1)c1ccc(Cl)cc1 [Compound 17, 4-chloro-α,α,α, 4'-tetrafluoro-m-benzotoluidide] | > 20 | 1.25 µg/mL
8 | O=C(Nc1cc(C(F)(F)F)cc(C(F)(F)F)c1)c1ccc(Cl)c(Cl)c1 [Compound 21, 3,4-dichloro-α,α,α,α',α',α'-hexafluorobenzo-3',5'-xylidide] | > 20 | 0.312 µg/mL
9 | O=C(Nc1cccc(C(F)(F)F)c1)c1cccc(Br)c1 [Compound 4] | > 20 | 2.5 µg/mL
10 | O=C(Nc1ccc(Cl)c(C(F)(F)F)c1)c1ccc(C(F)(F)F)cc1 [Compound 7, 4'-Chloro-α,α,α,α',α ',α ', -hexafluoro-p-tolu-m-toluidide] | 0.625 (≈ 1.7 µM) | 0.312 µg/mL
11 | O=C(Nc1ccc(F)c(C(F)(F)F)c1)c1ccc(Br)cc1 [Compound 18, 4-bromo-α,α,α, 4' -tetrafluoro-m-benzotoluidide] | > 20 | 1.25 µg/mL
12 | O=C(Nc1cccc(C(F)(F)F)c1)c1cccc(Cl)c1 [Compound 2] | > 20 | 2.5 µg/mL
13 | O=C(Nc1cccc(C(F)(F)F)c1)c1cc(Cl)cc(Cl)c1 [Compound 6] | > 20 | 2.5 µg/mL
14 | O=C(Nc1ccc(Cl)c(C(F)(F)F)c1)c1ccc(Cl)c(Cl)c1 [Compound 12] | > 20 | 0.312 µg/mL

The next lines start with results.

Row | MIC [µg/mL] | SMILES | Compound Activity With Soap: minimum concentration where S. aureus growth is completely inhibited
15 | > 10 | O=C(Nc1ccc(Cl)cc1)c1ccc(Cl)c(Cl)c1 [Compound C33] | B (Inactive at 10 mcg./ml. (highest concentration tested))
16 | > 10 | O=C(Nc1cc(C(F)(F)F)ccc1Cl)c1cccc(Br)c1 [Compound C19] | B (Inactive at 10 mcg./ml. (highest concentration tested))
17 | > 10 | O=C(Nc1cc(C(F)(F)F)ccc1Cl)c1cccc(Cl)c1 [Compound C16] | B (Inactive at 10 mcg./ml. (highest concentration tested))
18 | > 20 | O=C(Nc1cccc(Cl)c1)c1ccc(Cl)cc1 [Compound C30] | 5.0 µg/mL
19 | 10 (≈ 29 µM) | O=C(Nc1ccc(Cl)c(Cl)c1)c1ccc(Br)cc1 [Compound C37] | 20.0 µg/mL
20 | > 20 | O=C(Nc1ccc(Cl)c(Cl)c1)c1ccc(C(F)(F)F)cc1 [Compound C38] | 10.0 µg/mL
21 | > 20 | O=C(Nc1cccc(Cl)c1)c1ccc(Cl)c(Cl)c1 [Compound C34] | A (Inactive at 20 mcg./ml. (highest concentration tested))
22 | > 20 | O=C(Nc1cc(C(F)(F)F)cc(C(F)(F)F)c1)c1ccc(F)cc1 [Compound C27] | 10.0 µg/mL
23 | 20 (≈ 70.6 µM) | O=C(Nc1ccc(C(F)(F)F)cc1)c1ccc(F)cc1 [Compound C10] | 5.0 µg/mL
24 | > 10 | O=C(Nc1ccc(Cl)c(C(F)(F)F)c1)c1ccccc1Br [Compound C14] | B (Inactive at 10 mcg./ml. (highest concentration tested))
25 | > 10 | O=C(Nc1ccc(Cl)c(C(F)(F)F)c1)c1cc(Cl)cc(Cl)c1 [Compound C11] | B (Inactive at 10 mcg./ml. (highest concentration tested))
26 | > 20 | O=C(Nc1cc(C(F)(F)F)cc(C(F)(F)F)c1)c1ccccc1Cl [Compound C26] | 10.0 µg/mL
27 | > 10 | O=C(Nc1ccc(Cl)cc1C(F)(F)F)c1cccc(Cl)c1 [Compound C21] | B (Inactive at 10 mcg./ml. (highest concentration tested))
28 | > 10 | O=C(Nc1cc(C(F)(F)F)ccc1Cl)c1ccc(F)cc1 [Compound C18] | B (Inactive at 10 mcg./ml. (highest concentration tested))
29 | > 20 | N#CSc1ccc(NC(=O)c2ccc(Cl)cc2)cc1C(F)(F)F [Compound C23] | 5.0 µg/mL
30 | > 10 | O=C(Nc1cc(C(F)(F)F)cc(C(F)(F)F)c1)c1cccc(Br)c1 [Compound C29] | B (Inactive at 10 mcg./ml. (highest concentration tested))
31 | > 10 | N#CSc1ccc(NC(=O)c2ccc(Cl)c(Cl)c2)cc1C(F)(F)F [Compound C24] | B (Inactive at 10 mcg./ml. (highest concentration tested))
32 | > 10 | O=C(Nc1ccc(Cl)cc1C(F)(F)F)c1ccccc1Cl [Compound C22] | B (Inactive at 10 mcg./ml. (highest concentration tested))
33 | > 10 | O=C(Nc1cc(Cl)cc(Cl)c1)c1ccc(Cl)c(Cl)c1 [Compound C36] | B (Inactive at 10 mcg./ml. (highest concentration tested))
34 | > 10 | O=C(Nc1ccc(Cl)c(Cl)c1)c1ccc(Cl)c(Cl)c1 [Compound C35] | B (Inactive at 10 mcg./ml. (highest concentration tested))
35 | > 20 | O=C(Nc1cccc(C(F)(F)F)c1)c1cccc(C(F)(F)F)c1 [Compound C4] | 10.0 µg/mL
36 | > 20 | O=C(Nc1cccc(C(F)(F)F)c1)c1ccccc1 [Compound C5] | 10.0 µg/mL
37 | > 20 | CC(C)(C)c1ccc(C(=O)Nc2cccc(C(F)(F)F)c2)cc1 [Compound C39] | 5.0 µg/mL
38 | > 20 | O=C(Nc1cc(Cl)cc(Cl)c1)c1ccc(Cl)cc1 [Compound C32] | 10.0 µg/mL
39 | > 20 | O=C(Nc1cccc(C(F)(F)F)c1)c1ccccc1Cl [Compound C1] | 10.0 µg/mL
40 | > 20 | O=C(Nc1ccc(Cl)c(C(F)(F)F)c1)c1ccccc1Cl [Compound C12] | 10.0 µg/mL
41 | > 20 | O=C(Nc1cc(C(F)(F)F)cc(C(F)(F)F)c1)c1cccc(Cl)c1 [Compound C25] | 10.0 µg/mL
42 | > 10 | O=C(Nc1cc(C(F)(F)F)ccc1Cl)c1ccccc1Cl [Compound C17] | B (Inactive at 10 mcg./ml. (highest concentration tested))
43 | > 10 | O=C(Nc1cc(C(F)(F)F)ccc1Cl)c1ccc(Cl)cc1 [Compound C15] | B (Inactive at 10 mcg./ml. (highest concentration tested))
44 | > 20 | O=C(Nc1cccc(C(F)(F)F)c1)c1ccc(F)cc1 [Compound C3] | 10.0 µg/mL
